Results on 13 compounds are retold here after patent US20220315578A1, “BRD9 BIFUNCTIONAL DEGRADERS AND THEIR METHODS OF USE” (NOVARTIS AG, priority 2019, published 2022).

For the assay, the target named is T1, BRD9-GFP (Homo sapiens, UniProt Q9H8M2).
T1 construct: CHYSEL (2A cis-acting hydrolase element) remnant after GFP; mCherry is split off as a separate protein (C); expressed in transfected cells; host or cells: HEK293A cells (Invitrogen R70507), lentiviral transduction with pLenti6-BRD9-GFP-CHYSEL-mCherry, blasticidin selection
T1 sequence (Q9H8M2 1-597): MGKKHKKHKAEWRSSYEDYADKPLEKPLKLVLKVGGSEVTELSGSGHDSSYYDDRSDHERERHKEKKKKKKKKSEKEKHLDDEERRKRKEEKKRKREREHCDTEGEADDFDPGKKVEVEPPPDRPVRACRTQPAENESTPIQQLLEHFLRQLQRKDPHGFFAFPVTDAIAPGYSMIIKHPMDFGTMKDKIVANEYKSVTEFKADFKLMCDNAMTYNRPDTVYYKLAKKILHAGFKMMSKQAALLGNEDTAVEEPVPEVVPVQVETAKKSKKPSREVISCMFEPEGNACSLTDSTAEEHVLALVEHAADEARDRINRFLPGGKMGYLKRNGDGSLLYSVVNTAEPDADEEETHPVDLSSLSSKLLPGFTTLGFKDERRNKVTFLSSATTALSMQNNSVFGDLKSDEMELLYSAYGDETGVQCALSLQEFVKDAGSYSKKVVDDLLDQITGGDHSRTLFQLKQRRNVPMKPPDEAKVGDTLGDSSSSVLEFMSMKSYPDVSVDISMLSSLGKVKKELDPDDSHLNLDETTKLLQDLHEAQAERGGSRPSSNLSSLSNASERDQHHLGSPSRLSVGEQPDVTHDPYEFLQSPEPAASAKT
Nature of the assay: BRD9-GFP protein abundance flow cytometry assay in HEK293A cells. Type of assay: cell-based. Particulars: HEK293A-BRD9-GFP-CHYSEL-mCherry cells; for BRD9 Deg Amax %: 24 h, % protein remaining at the concentration at which maximum degradation is seen; for DC50: 24 h at 37° C., 10-point 1:3 dilution, concentration at which 50% maximal degradation was observed. The method, then: Compounds of the invention were tested in the following cellular assays. The terms in Table 1 are defined as follows: DC50 refers to the concentration at which 50% maximal degradation was observed; deg Amax is the extent of degradation and the value refers to the % protein remaining at the concentration at which maximum degradation is seen.
BRD9-GFP protein abundance flow cytometry assay in HEK293A cells: Degradation of BRD9 was measured in HEK293A cells expressing BRD9-GFP and mCherry from a stably integrated second generation bicistronic BRD9-GFP-CHYSELmCherry construct. Reduction of the GFP signal measured by flow cytometry served as readout for BRD9 degradation after degrader treatment.
The bicistronic BRD9-GFP-CHYSEL-mCherry construct is based on a pLenti6-DEST vector backbone where a GFP-CHYSEL-mCherry cassette was synthesized and inserted downstream of the DEST cassette by Gibson assembly resulting in the new gateway compatible vector pLenti6-DEST-GFP-CHYSEL-mCherry to allow Gateway cloning with pENTR221-BRD9 (w/o ATG) to obtain the final sensor construct pLenti6-BRD9-GFP-CHYSEL-mCherry.
HEK293 Å-BRD9-GFP-CHYSEL-mCherry sensor cells were generated by lentiviral vector transduction using the pLenti6-BRD9-GFP-CHYSEL-mCherry sensor construct described before. […] The mix was incubated for another 20 min at RT and then added to 1 ml of a freshly prepared suspension of HEK293FT cells in a well of a 6-well plate (concentration 1.2×10^6 cells/ml). 1 day after transfection, the medium was replaced with 1.5 ml of complete growth medium (DMEM high Glucose+10% FCS+1% L-Glutamine+1% NEAA+1% NaPyr.). 48 h post transfection supernatant containing viral transducing particles was collected and frozen at −80° C. […] Infection was performed with […] of collected supernatant containing viral transducing particles in 1 ml medium including 8 μg/ml polybrene. 24 h post infection, stably transfected cells were selected with blasticidin at a concentration of 8 μg/ml.
Stable HEK293 Å-BRD9-GFP-CHYSEL-mCherry cells were maintained in complete growth medium (DMEM high Glucose+10% FCS+1% L-Glutamine+1% NEAA+1% NaPyr.) with passaging performed twice per week. On Day 0, HEK293 Å-BRD9-GFP-CHYSEL-mCherry cells were seeded at 10,000 cells/well in a 96-well microtiter plate in […] complete medium. On Day 1, cells were treated in duplicate with 10-point 1:3 dilution series of compound using the HP D300 Digital Dispenser (Tecan). DMSO concentrations were normalized across the plate to 0.1%. On Day 2, after 24 h of incubation at 37° C., treatment media was discarded, cells rinsed with 100 ul/well PBS and then detached using 40 ul trypsin/well for 5 min. Trypsin was neutralized with 100 ul/well PBS+20% FCS). Flow cytometry was performed on the samples using the Beckman Coulter CytoFLEX flow cytometer. Cell identification was then performed using forward (FSC) vs. side scatter (SSC) plots. Single cell discrimination is performed using FSC-Width (FSC-W) vs. FSC-Height (FSC-H) plots. Median GFP/mCherry ratio values for 5,000 single cells are used to determine BRD9 levels. Median GFP/mCherry ratio values from HEK293 Å-mCherry are used as a background signal and thus defining 0% BRD9 signal. Median GFP/mCherry ratio values from DMSO treated HEK293 Å-BRD9-GFP-CHYSEL-mCherry are used to define 100% BRD9 signal for subsequent DC50 curves (concentration at 50% BRD9 degradation). Concentration response curves plotting relative reduction of the GFP/mCherry ratio signal (measured by flow cytometry) versus 10 compound concentrations (starting concentration […], 3 fold dilution steps) of the compounds allowed generation of DC50 values. Data is shown in Tables 2 and 3, in which, DC50 refers to the concentration at which 50% maximal degradation was observed; deg Amax is the extent of degradation and the value refers to the % protein remaining at the concentration at which maximum degradation is seen.
A general note: Flow cytometry measures light scatter and fluorescence of single cells or particles in a stream.

As for `COc1ccc(C(=O)N2CCC(OC3CCN(Cc4c(OC)cc(-c5cc(C)c(=O)n(C)c5)cc4OC)CC3)CC2)cc1N1CCC(=O)NC1=O` [Compound A1], the “BRD9 Deg Amax %” value is listed as 10.72% and it took 0.054 µM to reach half-maximal degradation (DC50).

For `COc1cc(-c2cc(C)c(=O)n(C)c2)ccc1C(=O)N1CCC(OC2CCN(C(=O)c3ccc(OC)c(N4CCC(=O)NC4=O)c3)CC2)CC1` [Compound A2, 1-(5-(4-((1-(4-(1,5-Dimethyl-6-oxo-1,6-dihydropyridin-3-yl)-2-methoxybenzoyl)piperidin-4-yl)oxy)piperidine-1-carbonyl)-2-methoxyphenyl)dihydropyrimidine-2,4(1H,3H)-dione], the “BRD9 Deg Amax %” value was 13.39% and it took 0.063 µM to reach half-maximal degradation (DC50).

Regarding `COc1cc(-c2cc(C)c(=O)n(C)c2)ccc1C(=O)N1CCN(CC2CCN(C(=O)c3ccc(OC)c(N4CCC(=O)NC4=O)c3)CC2)CC1` [Compound A3, 1-(5-(4-((4-(4-(1,5-Dimethyl-6-oxo-1,6-dihydropyridin-3-yl)-2-methoxybenzoyl)piperazin-1-yl)methyl)piperidine-1-carbonyl)-2-methoxyphenyl)dihydropyrimidine-24(1H,3H)-dione], the “BRD9 Deg Amax %” value was 12.29% and the DC50 (commonly the concentration at which degradation of the target reaches its halfway point) came to 0.068 µM.

Take `COc1cc(-c2cn(C)c(=O)c3cnccc23)ccc1OC1CCN(CC2CCN(C(=O)c3ccc(OC)c(N4CCC(=O)NC4=O)c3)CC2)CC1` [Compound A4, 1-(2-Methoxy-5-(4-((4-(2-methoxy-4-(2-methyl-1-oxo-1,2-dihydro-2,7-naphthyridin-4-yl)phenoxy)piperidin-1-yl)methyl)piperidine-1-carbonyl)phenyl)dihydropyrimidine-2,4(1H,3H)-dione]: the “BRD9 Deg Amax %” value turned out to be 14.01% and half-maximal degradation (DC50) was put at 0.004 µM.

`COc1cc(-c2cn(C)c(=O)c3cnccc23)ccc1OCC1CCN(CC2CCN(C(=O)c3ccc(OC)c(N4CCC(=O)NC4=O)c3)CC2)CC1` [Compound A5, 1-(2-Methoxy-5-(4-((4-((2-methoxy-4-(2-methyl-1-oxo-1,2-dihydro-2,7-naphthyridin-4-yl)phenoxy)methyl)piperidin-1-yl)methyl)piperidine-1-carbonyl)phenyl)dihydropyrimidine-2,4(1H,3H)-dione]: the “BRD9 Deg Amax %” value was 18.64% and it took 0.019 µM to reach half-maximal degradation (DC50).

With `COc1ccc(C(=O)N2CCC(CN3CCC(Oc4c(OC)cc(-c5cn(C)c(=O)c6cnccc56)cc4OC)CC3)CC2)cc1N1CCC(=O)NC1=O` [Compound A6, 1-(5-(4-((4-(2,6-Dimethoxy-4-(2-methyl-1-oxo-1,2-dihydro-2,7-naphthyridin-4-yl)phenoxy)piperidin-1-yl)methyl)piperidine-1-carbonyl)-2-methoxyphenyl)dihydropyrimidine-2,4(1H,3H)-dione], the “BRD9 Deg Amax %” value stood at 12.25% and half-maximal degradation (DC50) was put at 0.003 µM.

For `COc1cc(-c2cc(C)c(=O)n(C)c2)c(OC)cc1CN1CCC(OC2CCN(C(=O)COc3ccc(N4CCC(=O)NC4=O)cc3)CC2)CC1` [Compound A7, 1-(4-(2-(4-((1-(4-(1,5-Dimethyl-6-oxo-1,6-dihydropyridin-3-yl)-2,5-dimethoxybenzyl)piperidin-4-yl)oxy)piperidin-1-yl)-2-oxoethoxy)phenyl)dihydropyrimidine-2,4(1H,3H)-dione], the “BRD9 Deg Amax %” value was 21.30% and the DC50 was 0.06 µM.

Turning to `COc1cc(-c2cc(C)c(=O)n(C)c2)cc(OC)c1CN1CCC(OC2CCN(C(=O)COc3ccc(N4CCC(=O)NC4=O)cc3)CC2)CC1` [Compound A8, 1-(4-(2-(4-((1-(4-(1,5-Dimethyl-6-oxo-1,6-dihydropyridin-3-yl)-2,6-dimethoxybenzyl)piperidin-4-yl)oxy)piperidin-1-yl)-2-oxoethoxy)phenyl)dihydropyrimidine-2,4(1H,3H)-dione], the “BRD9 Deg Amax %” value is 16.25% and the DC50 was determined as 0.07 µM.

With `COc1cc(-c2cn(C)c(=O)c3cnccc23)cc(OC)c1OC1CCN(CC2CCN(C(=O)c3ccc(Cl)c(N4CCC(=O)NC4=O)c3)CC2)CC1` [Compound A9, 1-(2-Chloro-5-(4-((4-(2,6-dimethoxy-4-(2-methyl-1-oxo-1,2-dihydro-2,7-naphthyridin-4-yl)phenoxy)piperidin-1-yl)methyl)piperidine-1-carbonyl)phenyl)dihydropyrimidine-2,4(1H,3H)-dione], the “BRD9 Deg Amax %” value is 20.62% and the DC50 is 0.002 µM.

On to `COc1cc(-c2cn(C)c(=O)c3cnccc23)ccc1OC1CCN(CC2CCN(C(=O)c3ccc(Cl)c(N4CCC(=O)NC4=O)c3)CC2)CC1` [Compound A10, 1-(2-Chloro-5-(4-((4-(2-methoxy-4-(2-methyl-1-oxo-1,2-dihydro-2,7-naphthyridin-4-yl)phenoxy)piperidin-1-yl)methyl)piperidine-1-carbonyl)phenyl)dihydropyrimidine-2,4(1H,3H)-dione], for which the “BRD9 Deg Amax %” value turned out to be 18.93% and the DC50 was 0.002 µM.

Consider `COc1cc(-c2cn(C)c(=O)c3cnccc23)ccc1OC1CCN(CC2CCN(C(=O)c3cccc(N4CCC(=O)NC4=O)c3)CC2)CC1` [Compound A11, 1-(3-(4-((4-(2-Methoxy-4-(2-methyl-1-oxo-1,2-dihydro-2,7-naphthyridin-4-yl)phenoxy)piperidin-1-yl)methyl)piperidine-1-carbonyl)phenyl)dihydropyrimidine-2,4(1H,3H)-dione], for which the “BRD9 Deg Amax %” value was found to be 19.45% and the DC50 turned out to be 0.012 µM.

Consider `COc1ccc(C(=O)N2CCC(CN3CCC(Oc4ccc(-c5cn(C)c(=O)c6cnccc56)cc4)CC3)CC2)cc1N1CCC(=O)NC1=O` [Compound A12, 1-(2-Methoxy-5-(4-((4-(4-(2-methyl-1-oxo-1,2-dihydro-2,7-naphthyridin-4-yl)phenoxy)piperidin-1-yl)methyl)piperidine-1-carbonyl)phenyl)dihydropyrimidine-2,4(1H,3H)-dione], for which the “BRD9 Deg Amax %” value amounted to 13.46% and it took 0.002 µM to reach half-maximal degradation (DC50).

As to `COc1cc(-c2cn(C)c(=O)c(C)c2C)ccc1CN1CCN(CC2CCN(C(=O)c3ccc(OC)c(N4CCC(=O)NC4=O)c3)CC2)CC1` [Compound A13, 1-(2-Methoxy-5-(4-((4-(2-methoxy-4-(1,4,5-trimethyl-6-oxo-1,6-dihydropyridin-3-yl)benzyl)piperazin-1-yl)methyl)piperidine-1-carbonyl)phenyl)dihydropyrimidine-2,4(1H,3H)-dione], the “BRD9 Deg Amax %” value is recorded as 18.05% and the DC50 turned out to be 0.015 µM.
